Data on 27 compounds can be found in ChEMBL document CHEMBL1135220, “Novel, potent non-covalent thrombin inhibitors incorporating p(3)-lactam scaffolds” (Bioorg Med Chem Lett, 2002).

Structures are written as SMILES. Bounds are passed on as bounds.

Data set [1] can be described thus: Maximum plasma concentration was determined in dogs at 1 mg/kg oral dosing; 0.05-0.2 ug/mL. The settings on record: dog. The format is ADME, organism-based, Canis lupus familiaris. Set-up: dose 1 mg/kg, route oral.
Data set [2] can be described thus: Half life in dogs at 1 mg/kg oral dosing; 35-100 min. Format: ADME, organism-based, Canis lupus familiaris. Set-up: dose 1 mg/kg, route oral. To be noted: dog, in vivo.
The nature of data set [3]: Area Under Curve for the compound was determined in dogs at 1 mg/kg oral dosing; 25-50 ug min/mL. To be noted: dog, in vivo. The format is ADME, organism-based, Canis lupus familiaris. Set-up: dose 1 mg/kg, route oral.
A further data set has as its target Serine protease 1 (Homo sapiens, UniProt P07477). In words: Inhibitory constant against trypsin determined in Vitro; Inact. means Inactive.
The target of the next data set is Prothrombin (Homo sapiens, UniProt P00734). In words: Inhibitory constant against human thrombin (FIIa) determined in vitro.
Data set [4] has as its target T1, Coagulation factor X (Homo sapiens, UniProt P00742). In words: Inhibitory constant against human Coagulation factor Xa determined in Vitro; Inact. means Inactive.
A further data set deals with Trypsin (Homo sapiens, UniProt P07477+P07478+P35030). In words: Inhibitory constant against trypsin determined in Vitro. The format is protein assay.
The target in data set [5] is T1, Coagulation factor X. In words: Inhibitory constant against human Coagulation factor Xa determined in Vitro.
A short description of data set [6]: Oral bioavailability in dog (fasted). The format is ADME, organism-based, Canis lupus familiaris. The settings on record: in vivo.
Data set [7] can be described thus: Maximum plasma concentration was determined as in dogs at 1 mg/kg oral dosing Cmax; 0.05-0.2 ug/mL. Format: ADME, organism-based, Canis lupus familiaris. To be noted: dog. Set-up: dose 1 mg/kg, route oral.

Sequence of Serine protease 1 (P07477 whole entry): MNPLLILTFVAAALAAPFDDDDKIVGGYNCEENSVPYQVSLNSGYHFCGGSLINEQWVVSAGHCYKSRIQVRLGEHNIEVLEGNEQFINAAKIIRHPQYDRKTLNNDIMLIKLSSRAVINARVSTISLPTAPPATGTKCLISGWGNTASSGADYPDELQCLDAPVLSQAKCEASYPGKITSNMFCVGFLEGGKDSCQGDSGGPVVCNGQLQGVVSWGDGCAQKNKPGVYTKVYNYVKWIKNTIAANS
T1 sequence (P00742 41-179 limits assumed): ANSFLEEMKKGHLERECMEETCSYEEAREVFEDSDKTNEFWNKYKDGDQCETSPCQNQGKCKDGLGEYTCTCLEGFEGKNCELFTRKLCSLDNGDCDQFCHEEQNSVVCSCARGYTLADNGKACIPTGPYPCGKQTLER
T1 sequence (P00742 235-488 limits assumed): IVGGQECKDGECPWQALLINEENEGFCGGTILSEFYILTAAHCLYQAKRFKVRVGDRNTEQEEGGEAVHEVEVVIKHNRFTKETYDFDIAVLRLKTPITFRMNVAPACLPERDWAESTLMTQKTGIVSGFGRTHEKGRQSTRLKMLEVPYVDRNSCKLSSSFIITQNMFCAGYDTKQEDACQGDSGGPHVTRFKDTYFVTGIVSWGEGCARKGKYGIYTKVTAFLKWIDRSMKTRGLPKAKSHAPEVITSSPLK

In the case of `COc1ccc(OC)c(S(=O)(=O)N[C@H]2CCCCN(CC(=O)CC3CCN(C(=N)N)CC3)C2=O)c1`, in data set [1], the Cmax was ~50 ng/mL. Besides, the half-life in data set [2] was ~35 min. In addition, in data set [3], the AUC is ~417 ng·h/mL. Moreover, the Ki result at Serine protease 1 is “Not Active”; at Prothrombin, 167 nM; on Coagulation factor X [4], “Not Active”.
For the compound `N=C(N)c1ccc(CC(=O)CN2CCCC[C@H](NS(=O)(=O)c3ccc4c(c3)CCO4)C2=O)cc1`, the Cmax in data set [1] was ~50 ng/mL. In addition, the half-life in data set [2] is ~35 min. The Ki at Trypsin was 3.2 nM; on Coagulation factor X [5], > 338 nM; on Prothrombin it was 6.2 nM. Besides, the AUC in data set [3] was ~417 ng·h/mL.
On to `N=C(N)c1ccc(CC(=O)CN2CCCC[C@H](NS(=O)(=O)c3ccc4c(c3)CCO4)C2=O)s1`, for which, in data set [1], the Cmax was ~50 ng/mL. Further, the half-life in data set [2] is ~35 min. In addition, the Ki on Trypsin came to 5.9 nM; on Coagulation factor X [5], 52.7 nM; on Prothrombin it was 0.6 nM. Moreover, the AUC in data set [3] is ~417 ng·h/mL.
As for `N[C@H]1CC[C@H](CC(=O)CN2CCCC[C@H](NS(=O)(=O)c3ccc4c(c3)CCO4)C2=O)CC1`, the maximum concentration (Cmax) in data set [1] is ~50 ng/mL. Further, the half-life in data set [2] was ~35 min. The Ki was > 1678 nM on Trypsin, 53.2 nM at Prothrombin and “Not Active” on Coagulation factor X [4]. For the same compound, the AUC in data set [3] is ~417 ng·h/mL.
For `Cc1nc(N)ccc1CC(=O)CN1CCC[C@H](NS(=O)(=O)Cc2ccccc2)C1=O`, the Cmax in data set [1] is ~50 ng/mL. The half-life in data set [2] was ~35 min. Also, the Ki was > 1678 nM at Trypsin, > 397 nM at Prothrombin and “Not Active” at Coagulation factor X [4]. For the same compound, in data set [3], the AUC is ~417 ng·h/mL.
`N=C(N)c1ccc(CC(=O)CN2CCCC[C@H](NS(=O)(=O)c3ccc4ccccc4c3)C2=O)cc1`: the Cmax in data set [1] is ~50 ng/mL. Also, the half-life in [2] was ~35 min. The Ki at Trypsin is 12.3 nM; on Coagulation factor X [5], > 338 nM; at Prothrombin it was 163 nM. In addition, the AUC in data set [3] is ~417 ng·h/mL.
For the compound `N[C@H]1CC[C@H](CC(=O)CN2CCCC[C@H](NS(=O)(=O)Cc3ccccc3)C2=O)CC1`, in data set [1], the Cmax is ~50 ng/mL. Besides, the half-life in [2] is ~35 min. Further, the AUC in data set [3] is ~417 ng·h/mL. For the same compound, the Ki entry at Serine protease 1 was “Not Active”; at Prothrombin, 195 nM; on Coagulation factor X [4], “Not Active”.
As to `N=C(N)N1CCC(CC(=O)CN2CCCC[C@H](NS(=O)(=O)c3ccc4c(c3)CCO4)C2=O)CC1`, the Cmax in data set [1] is ~50 ng/mL. The half-life in [2] was ~35 min. Also, the inhibition constant Ki was 872.5 nM at Trypsin, 23.8 nM on Prothrombin and “Not Active” at Coagulation factor X [4]. Besides, in [3], the AUC was ~417 ng·h/mL.
`N=C(N)c1ccc(CC(=O)CN2CCCC[C@H](NS(=O)(=O)c3ccc4c(c3)CCO4)C2=O)c(F)c1`: the Cmax in [1] was ~50 ng/mL. In data set [2], the half-life is ~35 min. Moreover, the figures for the Ki on Trypsin, at Coagulation factor X [5] and on Prothrombin were 7.6 nM, > 338 nM and 29.8 nM, respectively. For the same compound, the exposure (AUC) in [3] was ~417 ng·h/mL.
Take `COc1ccc(S(=O)(=O)N[C@H]2CCCCN(CC(=O)CC3CCN(C(=N)N)CC3)C2=O)cc1OC`: in data set [1], the Cmax was ~50 ng/mL. Also, the half-life in [2] was ~35 min. Further, the Ki on Trypsin was > 1678 nM; at Coagulation factor X [5] it was > 338 nM; at Prothrombin, 85.7 nM. For the same compound, in data set [3], the AUC is ~417 ng·h/mL.
Take `N=C(N)N1CCC(CC(=O)CN2CCCC[C@H](NS(=O)(=O)c3ccccc3)C2=O)CC1`: the Cmax in [1] is ~50 ng/mL. Further, the half-life in [2] was ~35 min. In addition, the Ki on Trypsin was 1678 nM; on Coagulation factor X [5], > 338 nM; at Prothrombin, 71.4 nM. Also, the AUC in data set [3] is ~417 ng·h/mL.
Regarding `Cc1nc(N)ccc1CC(=O)CN1CCCC[C@H](NS(=O)(=O)c2ccc3c(c2)CCO3)C1=O`, the Cmax in data set [1] is ~50 ng/mL. In addition, the half-life in [2] was ~35 min. Further, the Ki on Trypsin was 1678 nM; on Coagulation factor X [5] it was > 338 nM; at Prothrombin it was 39.5 nM. Moreover, the AUC in [3] was ~417 ng·h/mL.
In turn, `COC(=O)c1ccccc1CS(=O)(=O)N[C@H]1CCCCN(CC(=O)N[C@H](C=O)CCCNC(=N)N)C1=O` displayed a bioavailability in [6] of 67%. Moreover, the Ki on Trypsin worked out at 16 nM.
Take `N=C(N)c1ccc(CC(=O)CN2CCCC[C@H](NS(=O)(=O)Cc3ccccc3)C2=O)cc1`: the Cmax in data set [1] was ~50 ng/mL. Further, in data set [2], the half-life is ~35 min. For the same compound, the Ki on Trypsin worked out at 84.6 nM; on Coagulation factor X [5] it was 315 nM; on Prothrombin, 19.4 nM. In addition, the AUC in [3] was ~417 ng·h/mL.
Turning to `COc1ccc(S(=O)(=O)N[C@H]2CCCCN(CC(=O)Cc3ccc(C(=N)N)cc3)C2=O)cc1OC`, in data set [1], the Cmax is ~50 ng/mL. Further, the half-life in data set [2] was ~35 min. In addition, the Ki on Trypsin is 11.6 nM; at Coagulation factor X [5], > 338 nM; at Prothrombin, 13.3 nM. Besides, the AUC in data set [3] is ~417 ng·h/mL.
Turning to `N=C(N)N1CCC(CC(=O)CN2C(=O)[C@@H](NS(=O)(=O)c3ccc4c(c3)CCO4)CCc3ccccc32)CC1`, the maximum concentration (Cmax) in data set [1] is ~50 ng/mL. Moreover, the half-life in [2] was ~25 min. For the same compound, in data set [3], the AUC was ~417 ng·h/mL. Besides, the Ki result at Serine protease 1 is “Not Active”; on Prothrombin, 61 nM; at Coagulation factor X [4], “Not Active”.
Turning to `N=C(N)N1CCC(CC(=O)[C@@H]2Cc3cccc4c3N2C(=O)[C@@H](NS(=O)(=O)c2ccc3c(c2)CCO3)CC4)CC1`, the half-life in data set [2] is ~35 min. In addition, the Cmax in data set [7] is ~50 ng/mL. Also, the Ki at Trypsin is 2.5 nM; at Coagulation factor X [5], 49.2 nM; on Prothrombin it was 10.8 nM. Further, in data set [3], the AUC was ~417 ng·h/mL.
As to `N=C(N)c1ccc(CC(=O)CN2CCCC[C@H](NS(=O)(=O)c3ccccc3)C2=O)cc1`, the maximum concentration (Cmax) in [1] is ~50 ng/mL. Moreover, the half-life in data set [2] was ~35 min. Moreover, the inhibition constant Ki at Trypsin was 8.3 nM; at Coagulation factor X [5], > 338 nM; at Prothrombin, 19.4 nM. Moreover, the AUC in data set [3] was ~417 ng·h/mL.
Regarding `N/C(=N\O)c1ccc(CC(=O)CN2C(=O)[C@@H](NS(=O)(=O)c3ccc4c(c3)CCO4)CCc3ccccc32)cc1`, the Cmax in [1] is ~50 ng/mL. The half-life in data set [2] is ~35 min. Moreover, the AUC in [3] is ~417 ng·h/mL. Further, the Ki entry was “Not Active” on Serine protease 1, > 397 nM at Prothrombin and “Not Active” on Coagulation factor X [4].
For `O=C(Cc1ccc2[nH]ncc2c1)CN1CCCC[C@H](NS(=O)(=O)c2ccc3c(c2)CCO3)C1=O`, the Cmax in data set [1] is ~50 ng/mL. Further, the half-life in data set [2] was ~35 min. Also, the AUC in [3] is ~417 ng·h/mL. In addition, the Ki result on Serine protease 1 was “Not Active”; on Prothrombin, 283 nM; at Coagulation factor X [4], “Not Active”.
Turning to `N=C(N)NCCC[C@H](NC(=O)CN1CCCC[C@H](NS(=O)(=O)Cc2ccccc2)C1=O)C(=O)O`, the Ki on Coagulation factor X [5] was found to be 40 nM; on Prothrombin, 0.54 nM.
Consider `COC(=O)c1ccccc1CS(=O)(=O)N[C@H]1CCCCN(CC(=O)N[C@@H](CCCNC(=N)N)C(=O)O)C1=O`, for which the results for the Ki at Coagulation factor X [5] and at Prothrombin were 93 nM and 0.95 nM, respectively.
On to `Cc1nc(N)ccc1CC(=O)CN1CCCC[C@H](NS(=O)(=O)Cc2ccccc2)C1=O`, for which the Cmax in data set [1] is ~50 ng/mL. In addition, in data set [2], the half-life was ~35 min. For the same compound, the Ki is 1678 nM at Trypsin, 92.9 nM on Prothrombin and “Not Active” at Coagulation factor X [4]. The AUC in data set [3] is ~417 ng·h/mL.
For the compound `N=C(N)c1ccc(CC(=O)CN2C(=O)[C@@H](NS(=O)(=O)c3ccc4c(c3)CCO4)CCc3ccccc32)cc1`, in data set [1], the Cmax was ~50 ng/mL. For the same compound, the half-life in data set [2] was ~35 min. Also, the Ki is 19.5 nM at Trypsin, > 338 nM on Coagulation factor X [5] and 14.4 nM on Prothrombin. The AUC in data set [3] was ~417 ng·h/mL.
Turning to `N=C(N)NCCC[C@@H](C=O)NC(=O)CN1CCCC[C@H](NS(=O)(=O)Cc2ccccc2)C1=O`, the bioavailability in data set [6] was 66%. The compound further gave a Ki at Trypsin of 18 nM.
Regarding `COc1ccc(OC)c(S(=O)(=O)N[C@H]2CCCCN(CC(=O)Cc3ccc(C(=N)N)cc3)C2=O)c1`, in [1], the maximum concentration (Cmax) was ~50 ng/mL. Moreover, in data set [2], the half-life was ~35 min. Further, the Ki on Trypsin was 35.2 nM; at Coagulation factor X [5], > 338 nM; at Prothrombin, 9 nM. Further, the AUC in data set [3] is ~417 ng·h/mL.
As to `N/C(=N\O)c1ccc(CC(=O)CN2CCCC[C@H](NS(=O)(=O)c3ccc4c(c3)CCO4)C2=O)cc1`, the Cmax in [1] was ~50 ng/mL. Moreover, the half-life in data set [2] was ~35 min. For the same compound, the inhibition constant (Ki) on Trypsin is 80.5 nM; at Prothrombin, 240 nM; on Coagulation factor X [4] it was “Not Active”. In addition, in [3], the AUC is ~417 ng·h/mL.

The term Cmax denotes the highest concentration seen after dosing. Broadly, the half-life is the time in which the quantity being followed falls by half. A low value points to fast loss. The term AUC denotes the area under the concentration-time curve, a measure of exposure. In general, Ki refers to the dissociation constant of the complex between target and ligand, obtained from inhibition or displacement. Low readings indicate higher affinity, high ones lower affinity. By bioavailability is commonly meant the share of a dose that reaches the circulation, judged against a reference dose that is usually intravenous.
